Data set [1] can be described thus: Cytotoxicity assay on L6-cells (Alamar Blue). The note with it: rat, Cytotox L6, Cytotoxicity against rat myoblast cells (L6).
In data set [2] the test system is Trypanosoma cruzi trypomastigote forms (Tulahuen strain). The data set is described as follows: Intracellular Trypanosoma cruzi assay in L6-cells, beta-galactosidase/CPRG readout. The note with it: In vitro inhibition, read-out: T.cruzi. The format is cell-based. The gist of the method:
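L6 rat myoblasts infected with Tulahuen C2C4 LacZ T. cruzi; after incubation, CPRG/Nonidet substrate added and colour developed 2–6 h. Absorbance at 540 nm; IC50 calculated; triplicate tests.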

The subject of data set [3] is Trypanosoma brucei rhodesiense (STIB 900 strain). In words: Alamar Blue assay against Trypanosoma brucei rhodesiense grown in axenic medium. The format is cell-based. The note with it: In vitro inhibition, read-out: T.b.rhod. The gist of the method:
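T. b. rhodesiense STIB 900 cultured in axenic medium and exposed to samples in an Alamar Blue viability assay, run in triplicate. IC50 calculated from the readout; melarsoprol served as reference drug.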

Data set [4] has as its system Axenically grown Leishmania donovani amastigotes (strain MHOM/ET/67/L82). The data set is described as follows: Axenic Leishmania donovani amastigote resazurin assay. Format: cell-based. The note with it: In vitro inhibition, read-out: L.don. ax. The gist of the method:
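Strain MHOM/ET/67/L82 amastigotes grown axenically and tested in triplicate by resazurin assay. Plates developed 2-4 hours, fluorescence read at 536 nm excitation/588 nm emission and expressed as percentage of negative control.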
(In general: Alamar Blue is a resazurin reagent that responds to reducing activity.)

For a further data set, the system named is Plasmodium falciparum. The data set is described as follows: 3H-hypoxanthine incorporation assay against Plasmodium falciparum. The note with it: In vitro inhibition, read-out: P.falc NF5. Format: cell-based. The method, then:
(§1) Tests were done in triplicate.
IC50 values were calculated by linear interpolation.

Data set [5] concerns intracellular Leishmania donovani (L.don. InMac). In words: Intracellular Leishmania donovani assay (L.don. InMac). Conditions: In vitro inhibition. The format is cell-based.
Source text: as §1

Molecules are shown by their SMILES. Like-named read-outs stand apart in the source and are kept apart here. Starred links: 1 amine or outer side, 2 acyl side, 3 side chain; linkers in the order of their positions; H or OH if unused. Non-standard residues stand in square brackets, D forms with d. Residues, ends and D or L forms follow the SMILES beside them. *: point of attachment. ACHC(1S,2R) = O=C([C@H]1CCCC[C@H]1N[*:1])[*:2]; NH((S)CH(Me)CH2NMe2) = C[C@@H](CN(C)C)N*; NH(1-CH2NMe2-cBu) = CN(C)CC1(N*)CCC1; Gly(octyl) = CCCCCCCC[C@H](N)C(=O)O; Oxazole4CO(2-Me) = Cc1nc(C(=O)*)co1; X16 = COc1ccc2cc(C(=O)*)c(=O)oc2c1; X17 = C[C@@H](CN1CCOCC1)N*; X22 = CC1CC(C)CN(CCN*)C1; Hexanoyl = CCCCCC(=O)*; X18 = CN1CCN(CCN*)CC1; Aib = CC(C)(N)C(=O)O; Bz = O=C(c1ccccc1)*; βAla = NCCC(=O)O

As to `CCCCCC(=O)N1CCC[C@H]1C(=O)N[C@@H](CCCCNC(=O)c1cc2ccc(OC)cc2oc1=O)C(=O)N[C@@H](CC(C)C)C(=O)NC(C)(C)C(=O)N[C@@H](CC(C)C)C(=O)N[C@@H](CC(C)C)C(=O)NC(C)(C)C(=O)NC(C)(C)C(=O)NCCC(=O)N[C@@H](C)CN(C)C` [Compound 5767, (2S)-N-[(1S)-1-[(1-{[(1S)-1-{[(1S)-1-{[1-({1-[(2-{[(2S)-1-(dimethylamino)propan-2-yl]carbamoyl}ethyl)carbamoyl]-1-methylethyl}carbamoyl)-1-methylethyl]carbamoyl}-3-methylbutyl]carbamoyl}-3-methylbutyl]carbamoyl}-1-methylethyl)carbamoyl]-3-methylbutyl]-2-{[(2S)-1-hexanoylpyrrolidin-2-yl]formamido}-6-[(7-methoxy-2-oxo-2H-chromen-3-yl)formamido]hexanamide] (Hexanoyl-PK(X16)L[Aib]LL[Aib][Aib][βAla]-{NH((S)CH(Me)CH2NMe2)}), the IC50 at 70 h in data set [1] worked out at 508 nM. Also, the IC50 came out at 114 nM in data set [2], 3.5 nM in data set [3], 17.8 nM in data set [4] and 21.3 nM in the data set on Plasmodium falciparum.

As to `CCCCCCCC[C@H](NC(=O)[C@@H]1CCCN1C(=O)CCCCC)C(=O)N[C@@H](CC(C)C)C(=O)NC(C)(C)C(=O)N[C@@H](CC(C)C)C(=O)N[C@@H](CC(C)C)C(=O)NC(C)(C)C(=O)NC(C)(C)C(=O)NCCC(=O)NC1(CN(C)C)CCC1` [Compound 5882, (2S)-N-[(1S)-1-[(1-{[(1S)-1-{[(1S)-1-({1-[(1-{[2-({1-[(dimethylamino)methyl]cyclobutyl}carbamoyl)ethyl]carbamoyl}-1-methylethyl)carbamoyl]-1-methylethyl}carbamoyl)-3-methylbutyl]carbamoyl}-3-methylbutyl]carbamoyl}-1-methylethyl)carbamoyl]-3-methylbutyl]-2-{[(2S)-1-hexanoylpyrrolidin-2-yl]formamido}decanamide] (Hexanoyl-P[Gly(octyl)]L[Aib]LL[Aib][Aib][βAla]-{NH(1-CH2NMe2-cBu)}), in data set [1], the IC50 at 70 h was found to be 44.1 nM. The IC50 came out at 42600 nM in data set [2], 20500 nM in data set [3], 46800 nM in data set [4] and 0.9 nM with Plasmodium falciparum.

In turn, `CCCCCCCC[C@H](NC(=O)[C@@H]1CCCN1C(=O)CCCCC)C(=O)N[C@@H](CC(C)C)C(=O)NC(C)(C)C(=O)N[C@@H](CC(C)C)C(=O)N[C@@H](CC(C)C)C(=O)NC(C)(C)C(=O)NC(C)(C)C(=O)NCCC(=O)NCCN1CCN(C)CC1` [Compound 5884, (2S)-2-{[(2S)-1-hexanoylpyrrolidin-2-yl]formamido}-N-[(1S)-3-methyl-1-[(1-methyl-1-{[(1S)-3-methyl-1-{[(1S)-3-methyl-1-{[1-methyl-1-({1-methyl-1-[(2-{[2-(4-methylpiperazin-1-yl)ethyl]carbamoyl}ethyl)carbamoyl]ethyl}carbamoyl)ethyl]carbamoyl}butyl]carbamoyl}butyl]carbamoyl}ethyl)carbamoyl]butyl]decanamide] (Hexanoyl-P[Gly(octyl)]L[Aib]LL[Aib][Aib][βAla]-X18) yielded an IC50 at 70 h in data set [1] of 128 nM. For the same compound, the IC50 stood at 42500 nM in data set [2], 0.6 nM in data set [3], 19400 nM in data set [4] and 15000 nM in the data set on Plasmodium falciparum.

Take `CCCCCCCC[C@H](NC(=O)[C@@H]1CCCN1C(=O)CCCCC)C(=O)N[C@@H](CC(C)C)C(=O)NC(C)(C)C(=O)N[C@@H](CC(C)C)C(=O)N[C@@H](CC(C)C)C(=O)NC(C)(C)C(=O)NC(C)(C)C(=O)NCCC(=O)NCCN1CC(C)CC(C)C1` (stereo partly drawn) [Compound 5885, (2S)-N-[(1S)-1-[(1-{[(1S)-1-{[(1S)-1-{[1-({1-[(2-{[2-(3,5-dimethylpiperidin-1-yl)ethyl]carbamoyl}ethyl)carbamoyl]-1-methylethyl}carbamoyl)-1-methylethyl]carbamoyl}-3-methylbutyl]carbamoyl}-3-methylbutyl]carbamoyl}-1-methylethyl)carbamoyl]-3-methylbutyl]-2-{[(2S)-1-hexanoylpyrrolidin-2-yl]formamido}decanamide] (Hexanoyl-P[Gly(octyl)]L[Aib]LL[Aib][Aib][βAla]-X22): the IC50 at 70 h in data set [1] was determined as 45.6 nM. Moreover, the IC50 was 42600 nM in data set [2], 0.2 nM in data set [3], 46800 nM in data set [4] and 0.9 nM in the data set with Plasmodium falciparum.

Consider `CCCCCCCC[C@H](NC(=O)[C@@H]1CCCN1C(=O)CCCCC)C(=O)N[C@@H](CC(C)C)C(=O)NC(C)(C)C(=O)N[C@@H](CC(C)C)C(=O)N[C@@H](CC(C)C)C(=O)NC(C)(C)C(=O)NC(C)(C)C(=O)NCCC(=O)N[C@@H](C)CN1CCOCC1` [Compound 5981, (2S)-2-{[(2S)-1-hexanoylpyrrolidin-2-yl]formamido}-N-[(1S)-3-methyl-1-[(1-methyl-1-{[(1S)-3-methyl-1-{[(1S)-3-methyl-1-{[1-methyl-1-({1-methyl-1-[(2-{[(2S)-1-(morpholin-4-yl)propan-2-yl]carbamoyl}ethyl)carbamoyl]ethyl}carbamoyl)ethyl]carbamoyl}butyl]carbamoyl}butyl]carbamoyl}ethyl)carbamoyl]butyl]decanamide] (Hexanoyl-P[Gly(octyl)]L[Aib]LL[Aib][Aib][βAla]-X17), for which the IC50 at 70 h in data set [1] came to 1080 nM. Besides, the IC50 was 723 nM in data set [2], 17.9 nM in data set [3], 0.2 nM in data set [4] and 35800 nM in the data set on Plasmodium falciparum.

Compound `CCCCCCCC[C@H](NC(=O)[C@H]1CCCC[C@H]1NC(=O)c1ccccc1)C(=O)N[C@@H](CC(C)C)C(=O)NC(C)(C)C(=O)N[C@@H](CC(C)C)C(=O)N[C@@H](CC(C)C)C(=O)NC(C)(C)C(=O)NC(C)(C)C(=O)NCCC(=O)N[C@@H](C)CN(C)C` [Compound 5982, N-[(1R,2S)-2-{[(1S)-1-{[(1S)-1-[(1-{[(1S)-1-{[(1S)-1-{[1-({1-[(2-{[(2S)-1-(dimethylamino)propan-2-yl]carbamoyl}ethyl)carbamoyl]-1-methylethyl}carbamoyl)-1-methylethyl]carbamoyl}-3-methylbutyl]carbamoyl}-3-methylbutyl]carbamoyl}-1-methylethyl)carbamoyl]-3-methylbutyl]carbamoyl}nonyl]carbamoyl}cyclohexyl]benzamide] (Bz-[ACHC(1S,2R)][Gly(octyl)]L[Aib]LL[Aib][Aib][βAla]-{NH((S)CH(Me)CH2NMe2)}) registered an IC50 at 70 h in data set [1] of 573 nM. Also, the IC50 in data set [2] came to 47.1 nM; in data set [3], 29200 nM; in data set [4] it was 0.9 nM; in the data set on Plasmodium falciparum, 12100 nM.

On to `CCCCCCCC[C@H](NC(=O)[C@@H]1CCCN1C(=O)c1coc(C)n1)C(=O)N[C@@H](CC(C)C)C(=O)NC(C)(C)C(=O)N[C@@H](CC(C)C)C(=O)N[C@@H](CC(C)C)C(=O)NC(C)(C)C(=O)N[C@@H](CC(C)C)C(=O)NCCC(=O)NC1(CN(C)C)CCC1` [Compound 6329, (2S)-N-[(1S)-1-[(1-{[(1S)-1-{[(1S)-1-[(1-{[(1S)-1-{[2-({1-[(dimethylamino)methyl]cyclobutyl}carbamoyl)ethyl]carbamoyl}-3-methylbutyl]carbamoyl}-1-methylethyl)carbamoyl]-3-methylbutyl]carbamoyl}-3-methylbutyl]carbamoyl}-1-methylethyl)carbamoyl]-3-methylbutyl]-2-{[(2S)-1-(2-methyl-1,3-oxazole-4-carbonyl)pyrrolidin-2-yl]formamido}decanamide] ({Oxazole4CO(2-Me)}-P[Gly(octyl)]L[Aib]LL[Aib]L[βAla]-{NH(1-CH2NMe2-cBu)}), for which the IC50 at 70 h in data set [1] was 398 nM. The IC50 in data set [2] came to 4.6 nM; in data set [3], 0.08 nM; in data set [4], 0.17 nM; in the data set with Plasmodium falciparum, 0.17 nM.

Compound `CCCCCCCC[C@H](NC(=O)[C@@H]1CCCN1C(=O)c1coc(C)n1)C(=O)N[C@@H](CC(C)C)C(=O)NC(C)(C)C(=O)NC(C)(C)C(=O)N[C@@H](CC(C)C)C(=O)N[C@@H](CC(C)C)C(=O)NC(C)(C)C(=O)NC(C)(C)C(=O)NCCC(=O)NC1(CN(C)C)CCC1` [Compound 6330, (2S)-N-[(1S)-1-({1-[(1-{[(1S)-1-{[(1S)-1-({1-[(1-{[2-({1-[(dimethylamino)methyl]cyclobutyl}carbamoyl)ethyl]carbamoyl}-1-methylethyl)carbamoyl]-1-methylethyl}carbamoyl)-3-methylbutyl]carbamoyl}-3-methylbutyl]carbamoyl}-1-methylethyl)carbamoyl]-1-methylethyl}carbamoyl)-3-methylbutyl]-2-{[(2S)-1-(2-methyl-1,3-oxazole-4-carbonyl)pyrrolidin-2-yl]formamido}decanamide] ({Oxazole4CO(2-Me)}-P[Gly(octyl)]L[Aib][Aib]LL[Aib][Aib][βAla]-{NH(1-CH2NMe2-cBu)}) registered an IC50 at 70 h in data set [1] of 1200 nM. Moreover, the IC50 in data set [2] was determined as 36.3 nM; in data set [3], 0.2 nM; in data set [4], 0.72 nM; in the data set with Plasmodium falciparum it was 0.24 nM.

As for `CCCCCCCCCCCCCCCCOP(=O)([O-])OCC[N+](C)(C)C` [Miltefosine], the IC50 is 1200 nM in data set [5] and 118 nM in data set [4] (axenic Leishmania donovani).

These data come from patent publication EP3345917A1, “ANTIPROTOZOAL COMPOUNDS” (Bacoba AG, priority 2017, dated 2018).
